Measured values: patent US20040197824A1, “Method for selective radioactive marking of peptides” (priority 2002, published 2004)

What was measured:
PTH1-receptor = PTH1-receptor (Homo sapiens, UniProt Q03431); assay: competitive binding study at PTH1-receptor; conditions: radio ligand concentration of 1 nM; FIG. 15
Y-receptor Y1 = molecular target: T1, Y-receptor Y1 (Homo sapiens, UniProt P25929); assay: competitive binding studies at the Y1 receptor; conditions: FIG. 9
T1 sequence (P25929 1-384): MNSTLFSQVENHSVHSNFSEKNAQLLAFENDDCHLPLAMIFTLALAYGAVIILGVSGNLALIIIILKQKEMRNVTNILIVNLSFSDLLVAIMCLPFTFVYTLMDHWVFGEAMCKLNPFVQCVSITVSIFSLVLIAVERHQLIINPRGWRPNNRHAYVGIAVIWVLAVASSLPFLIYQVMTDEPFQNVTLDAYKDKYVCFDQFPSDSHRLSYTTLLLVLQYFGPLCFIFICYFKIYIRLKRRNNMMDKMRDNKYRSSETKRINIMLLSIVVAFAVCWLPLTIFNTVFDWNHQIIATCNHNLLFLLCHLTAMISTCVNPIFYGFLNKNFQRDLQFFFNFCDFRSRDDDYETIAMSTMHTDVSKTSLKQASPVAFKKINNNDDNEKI
Procedure: (§1) The performance of the binding assays was performed as previously described.^(5)

Y-receptor Y2 = molecular target: T2, Y-receptor Y2 (Homo sapiens, UniProt P49146); assay: competitive binding studies at the Y2 receptor; conditions: FIG. 9
T2 sequence (P49146 1-381): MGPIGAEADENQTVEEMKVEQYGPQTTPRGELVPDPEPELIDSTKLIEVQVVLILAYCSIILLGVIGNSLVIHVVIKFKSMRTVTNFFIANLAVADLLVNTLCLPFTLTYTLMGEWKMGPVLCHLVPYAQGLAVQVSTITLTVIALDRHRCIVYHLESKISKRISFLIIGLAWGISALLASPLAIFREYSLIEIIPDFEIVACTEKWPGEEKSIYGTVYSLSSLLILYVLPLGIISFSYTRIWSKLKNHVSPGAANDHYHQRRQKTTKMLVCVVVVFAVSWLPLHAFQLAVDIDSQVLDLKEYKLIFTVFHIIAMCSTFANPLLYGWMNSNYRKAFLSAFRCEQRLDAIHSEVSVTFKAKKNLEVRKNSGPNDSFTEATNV
Procedure: as §1

Y-receptor Y5 = molecular target: T3, Y-receptor Y5 (Homo sapiens, UniProt Q15761); assay: competitive binding studies at the Y5 receptor; conditions: FIG. 9
T3 sequence (Q15761 1-445): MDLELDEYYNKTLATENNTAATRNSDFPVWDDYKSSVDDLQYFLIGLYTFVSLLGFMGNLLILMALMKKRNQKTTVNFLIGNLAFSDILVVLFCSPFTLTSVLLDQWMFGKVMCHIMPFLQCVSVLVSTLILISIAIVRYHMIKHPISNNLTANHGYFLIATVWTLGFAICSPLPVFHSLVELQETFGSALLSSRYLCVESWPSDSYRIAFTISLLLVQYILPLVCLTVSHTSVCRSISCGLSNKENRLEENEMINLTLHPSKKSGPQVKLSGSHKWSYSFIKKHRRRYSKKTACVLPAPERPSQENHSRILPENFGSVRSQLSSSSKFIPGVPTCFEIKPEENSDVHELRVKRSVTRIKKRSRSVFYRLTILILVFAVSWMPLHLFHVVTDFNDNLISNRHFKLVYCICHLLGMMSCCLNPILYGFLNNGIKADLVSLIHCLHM
Procedure: as §1

PTH1-receptor, sequence (Q03431 27-593): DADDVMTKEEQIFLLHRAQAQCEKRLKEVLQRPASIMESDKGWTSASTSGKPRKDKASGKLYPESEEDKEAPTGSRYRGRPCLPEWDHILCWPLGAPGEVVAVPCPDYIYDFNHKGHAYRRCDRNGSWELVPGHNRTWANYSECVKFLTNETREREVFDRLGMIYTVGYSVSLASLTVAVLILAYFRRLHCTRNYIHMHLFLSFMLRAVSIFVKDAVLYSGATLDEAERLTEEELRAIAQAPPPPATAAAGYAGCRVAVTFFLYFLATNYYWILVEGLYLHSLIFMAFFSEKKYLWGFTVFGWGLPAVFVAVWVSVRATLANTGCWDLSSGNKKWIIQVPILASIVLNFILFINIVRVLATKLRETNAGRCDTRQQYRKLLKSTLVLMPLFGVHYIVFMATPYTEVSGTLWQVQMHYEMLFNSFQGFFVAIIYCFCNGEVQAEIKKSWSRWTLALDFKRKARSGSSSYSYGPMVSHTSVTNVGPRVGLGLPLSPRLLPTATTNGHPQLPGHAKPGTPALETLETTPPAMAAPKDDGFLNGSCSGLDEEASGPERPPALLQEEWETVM

| Compound | behavior in competitive binding relative to non-marked PTH (1-34)-amide (PTH1-receptor) | behavior in competitive binding in comparison to commercially available ^3H-NPY (Y-receptor Y1) | behavior in competitive binding in comparison to commercially available ^3H-NPY (Y-receptor Y2) | behavior in competitive binding in comparison to commercially available ^3H-NPY (Y-receptor Y5) |
| --- | --- | --- | --- | --- |
| [3H]CC([3H])C(=O)NCCCC[C@H](NC(=O)CNC(=O)[C@H](CC(C)C)NC(=O)[C@H](CC(N)=O)NC(=O)[C@H](Cc1c[nH]cn1)NC(=O)[C@H](CCSC)NC(=O)[C@H](CC(C)C)NC(=O)[C@H](CCC(N)=O)NC(=O)[C@@H](NC(=O)[C@H](CCC(=O)O)NC(=O)[C@H](CO)NC(=O)[C@@H](NC(=O)[C@@H](N)CO)C(C)C)[C@@H](C)CC)C(=O)N[C@@H](Cc1c[nH]cn1)C(=O)N[C@@H](CC(C)C)C(=O)N[C@@H](CC(N)=O)C(=O)N[C@@H](CO)C(=O)N[C@@H](CCSC)C(=O)N[C@@H](CCC(=O)O)C(=O)N[C@@H](CCCNC(=N)N)C(=O)N[C@H](C(=O)N[C@@H](CCC(=O)O)C(=O)N[C@@H](Cc1c[nH]c2ccccc12)C(=O)N[C@@H](CC(C)C)C(=O)N[C@@H](CCCNC(=N)N)C(=O)N[C@@H](CCCCN)C(=O)N[C@@H](CCCCN)C(=O)N[C@@H](CC(C)C)C(=O)N[C@@H](CCC(N)=O)C(=O)N[C@@H](CC(=O)O)C(=O)N[C@H](C(=O)N[C@@H](Cc1c[nH]cn1)C(=O)N[C@@H](CC(N)=O)C(=O)N[C@@H](Cc1ccccc1)C(N)=O)C(C)C)C(C)C (stereo partly shown) [PTH (1-34)-amide marked at position 13, ^3H-proprionyl-Lys^13-PTH(1-34)-amide] | nearly identical behavior |  |  |  |
| ^3H-proprionyl-Lys^4-NPY [^3H-NPY] |  | identical behavior | identical behavior | identical behavior |
